# From ChEMBL document CHEMBL5528017, “Design and synthesis of dual BRD4/Src inhibitors for treatment of triple-negative breast cancer” (Eur J Med Chem, 2024)
# pIC50: −log10 of the molar value. Active and inactive are the calls of the source. The calls are words filed in the database; no cut-off is given here.
# Legend:
# MDA-MB-231 [1] = assay: cells; conditions: Homo sapiens, MDA-MB-231, 72 h
# Description: Antiproliferative activity against human MDA-MB-231 cells assessed as inhibition of cell viability incubated for 72 hrs by CCK8 assay
# [2] = target: Bromodomain-containing protein 4 (Homo sapiens, UniProt O60885); assay: Inhibition of His6-tagged recombinant BRD4 BD1 domain (44 to 168 residues) (unknown origin) expressed in Escherichia coli BL21(DE3) incubated for 0.5 hrs by FITC-labeled JQ1 based competitive fluorescence polarization assay
# MDA-MB-231 [3] = assay: Induction of cell cycle arrest in human MDA-MB-231 cells assessed as increase in p21 expression at 0.1 uM incubated for 24 hrs by western blot analysis; type: functional, cell-based
# MDA-MB-231 [4] = assay: Inhibition of cell migration in human MDA-MB-231 cells at 0.05 uM incubated for 12 hrs by wound healing assay; type: functional, cell-based
# MDA-MB-231 [5] = assay: Induction of cell cycle arrest in human MDA-MB-231 cells assessed as proportion of cells at G2 phase at 0.1 uM incubated for 24 hrs by propidium iodide staining based flow cytometry (reference value: 11.6%); type: functional
# MDA-MB-231 [6] = assay: Induction of cell cycle arrest in human MDA-MB-231 cells assessed as proportion of cells at S phase at 0.1 uM incubated for 24 hrs by propidium iodide staining based flow cytometry (reference value: 28.2%); type: functional
# MDA-MB-231 [7] = assay: Induction of apoptosis in human MDA-MB-231 cells assessed as proportion of necrotic cells at 0.5 uM incubated for 36 hrs by AnnexinV-FITC/PI staining based flow cytometry (reference value: 0%); type: functional
# MDA-MB-231 [8] = assay: Induction of apoptosis in human MDA-MB-231 cells assessed as proportion of late apoptotic cells at 0.5 uM incubated for 36 hrs by AnnexinV-FITC/PI staining based flow cytometry (reference value: […]%); type: functional
# MDA-MB-231 [9] = assay: Induction of apoptosis in human MDA-MB-231 cells assessed as proportion of early apoptotic cells at 0.5 uM incubated for 36 hrs by AnnexinV-FITC/PI staining based flow cytometry (reference value: 5.05%); type: functional
# MDA-MB-231 [10] = assay: Induction of cell cycle arrest in human MDA-MB-231 cells assessed as proportion of cells at G1 phase at 0.1 uM incubated for 24 hrs by propidium iodide staining based flow cytometry (reference value: 59.5%); type: functional
# MDA-MB-231 [11] = assay: Induction of cell cycle arrest in human MDA-MB-231 cells assessed as […] in cyclin D1 expression at 0.1 uM incubated for 24 hrs by western blot analysis; type: functional, cell-based
# MDA-MB-231 [12] = assay: Induction of apoptosis in human MDA-MB-231 cells assessed as proportion of viable cells at 0.5 uM incubated for 36 hrs by AnnexinV-FITC/PI staining based flow cytometry (reference value: 93.6%); type: functional
# MDA-MB-231 [13] = assay: Antitumor activity against human MDA-MB-231 cells xenografted in NOD-SCID mouse assessed as inhibition of tumor growth at 30 mg/kg, ip administered 5 days per week for 27 days; type: functional; conditions: time 27 day
# MDA-MB-231 [14] = assay: Induction of cell cycle arrest in human MDA-MB-231 cells assessed as downregulation of cyclin B1 expression at 0.1 uM incubated for 24 hrs by western blot analysis; type: functional, cell-based
# MDA-MB-231 [15] = assay: Inhibition of cell invasion in human MDA-MB-231 cells assessed as decrease in number of invading cells at 0.1 uM incubated for 16 hrs by matrigel coated transwell assay; type: functional, cell-based
# CWR22R = assay: Antiproliferative activity against human 22Rv1 cells assessed as inhibition of cell viability incubated for 3 to 4 days by CCK8 assay; type: functional, cell-based; conditions: time 3-4 day
# MCF7 = assay: Antiproliferative activity against human MCF7 cells assessed as inhibition of cell viability incubated for 3 to 4 days by CCK8 assay; type: functional, cell-based; conditions: time 3-4 day
# MDA-MB-231 [16] = assay: Induction of cell cycle arrest in human MDA-MB-231 cells assessed as decrease in cyclin D1 expression at 0.1 uM incubated for 24 hrs by western blot analysis; type: functional, cell-based
# MDA-MB-231 [17] = assay: Antitumor activity against human MDA-MB-231 cells xenografted in NOD-SCID mouse assessed as inhibition of tumor growth at 30 mg/kg, po administered 5 days per week for 27 days; type: functional; conditions: MDA-MB-231, 648 h, time 27 day, read-out: TGI
# A549 = assay: Antiproliferative activity against human A549 cells assessed as inhibition of cell viability incubated for 3 to 4 days by CCK8 assay; type: functional, cell-based; conditions: time 3-4 day
smiles,measurement,setting,value
Cc1nc(Nc2ncc(C(=O)Nc3c(C)cccc3Cl)s2)cc(N2CCN(CCOC(=O)CCCCCNC(=O)C[C@@H]3N=C(c4ccc(Cl)cc4)c4c(sc(C)c4C)-n4c(C)nnc43)CC2)n1,pIC50,MDA-MB-231 [1],5.97
Cc1nc(Nc2ncc(C(=O)Nc3c(C)cccc3Cl)s2)cc(N2CCN(CCOC(=O)[C@H](Cc3c[nH]c4ccccc34)NC(=O)C[C@@H]3N=C(c4ccc(Cl)cc4)c4c(sc(C)c4C)-n4c(C)nnc43)CC2)n1,pIC50,MDA-MB-231 [1],7.02
Cc1nc(Nc2ncc(C(=O)Nc3c(C)cccc3Cl)s2)cc(N2CCN(C(=O)C[C@@H]3N=Cc4c(sc(C)c4C)-n4c(C)nnc43)CC2)n1,pIC50,MDA-MB-231 [1],6.01
Cc1nc(Nc2ncc(C(=O)Nc3c(C)cccc3Cl)s2)cc(N2CCN(C(=O)CCCNC(=O)C[C@@H]3N=C(c4ccc(Cl)cc4)c4c(sc(C)c4C)-n4c(C)nnc43)CC2)n1,pIC50,MDA-MB-231 [1],5.88
Cc1nc(Nc2ncc(C(=O)Nc3c(C)cccc3Cl)s2)cc(N2CCN(CCOC(=O)[C@H](CC(C)C)NC(=O)C[C@@H]3N=C(c4ccc(Cl)cc4)c4c(sc(C)c4C)-n4c(C)nnc43)CC2)n1,pIC50,MDA-MB-231 [1],6.62
Cc1nc(Nc2ncc(C(=O)Nc3c(C)cccc3Cl)s2)cc(N2CCN(CCOC(=O)[C@H](CC(=O)OC(C)(C)C)NC(=O)C[C@@H]3N=C(c4ccc(Cl)cc4)c4c(sc(C)c4C)-n4c(C)nnc43)CC2)n1,pIC50,MDA-MB-231 [1],6.91
Cc1nc(Nc2ncc(C(=O)Nc3c(C)cccc3Cl)s2)cc(N2CCN(CCOC(=O)[C@@H]3CCCN3C(=O)C[C@@H]3N=C(c4ccc(Cl)cc4)c4c(sc(C)c4C)-n4c(C)nnc43)CC2)n1,pIC50,MDA-MB-231 [1],6.87
Cc1nc(Nc2ncc(C(=O)Nc3c(C)cccc3Cl)s2)cc(N2CCN(C(=O)[C@@H]3CCCCN3C(=O)C[C@@H]3N=C(c4ccc(Cl)cc4)c4c(sc(C)c4C)-n4c(C)nnc43)CC2)n1,pIC50,MDA-MB-231 [1],5.30
same,pIC50,[2],< 6.00
CSCC[C@H](NC(=O)C[C@@H]1N=C(c2ccc(Cl)cc2)c2c(sc(C)c2C)-n2c(C)nnc21)C(=O)OCCN1CCN(c2cc(Nc3ncc(C(=O)Nc4c(C)cccc4Cl)s3)nc(C)n2)CC1,pIC50,MDA-MB-231 [1],7.24
Cc1sc2c(c1C)C(c1ccc(Cl)cc1)=N[C@@H](CC(=O)OC(C)(C)C)c1nnc(C)n1-2,Activity,MDA-MB-231 [3],Active
same,inhibition,MDA-MB-231 [4],Active
same,pIC50,MDA-MB-231 [1],6.05
same,Activity,MDA-MB-231 [5],8.53%
same,Activity,MDA-MB-231 [6],17.5%
same,Activity,MDA-MB-231 [7],0%
same,Activity,MDA-MB-231 [8],2.9%
same,Activity,MDA-MB-231 [9],13.3%
same,Activity,MDA-MB-231 [10],73.3%
same,Activity,MDA-MB-231 [11],Active
same,Activity,MDA-MB-231 [12],83.8%
same,TGI,MDA-MB-231 [13],63.6%
same,Activity,MDA-MB-231 [14],Active
same,inhibition,MDA-MB-231 [15],inactive
Cc1nc(Nc2ncc(C(=O)Nc3c(C)cccc3Cl)s2)cc(N2CCN(CCOC(=O)CCOCCOCCOCCNC(=O)C[C@@H]3N=C(c4ccc(Cl)cc4)c4c(sc(C)c4C)-n4c(C)nnc43)CC2)n1,pIC50,MDA-MB-231 [1],6.78
Cc1nc(Nc2ncc(C(=O)Nc3c(C)cccc3Cl)s2)cc(N2CCN(CCOC(=O)C[C@@H]3N=C(c4ccc(Cl)cc4)c4c(sc(C)c4C)-n4c(C)nnc43)CC2)n1,pIC50,MDA-MB-231 [1],7.28
Cc1nc(Nc2ncc(C(=O)Nc3c(C)cccc3Cl)s2)cc(N2CCN(CCOC(=O)CNC(=O)C[C@@H]3N=C(c4ccc(Cl)cc4)c4c(sc(C)c4C)-n4c(C)nnc43)CC2)n1,pIC50,MDA-MB-231 [1],7.66
Cc1nc(Nc2ncc(C(=O)Nc3c(C)cccc3Cl)s2)cc(N2CCN(CCOC(=O)C(NC(=O)C[C@@H]3N=C(c4ccc(Cl)cc4)c4c(sc(C)c4C)-n4c(C)nnc43)C(C)C)CC2)n1 (some centres not stated),pIC50,MDA-MB-231 [1],6.76
Cc1nc(Nc2ncc(C(=O)Nc3c(C)cccc3Cl)s2)cc(N2CCN(CCOC(=O)[C@@H]3CCCCN3C(=O)C[C@@H]3N=C(c4ccc(Cl)cc4)c4c(sc(C)c4C)-n4c(C)nnc43)CC2)n1,pIC50,MDA-MB-231 [1],6.62
same,pIC50,[2],< 6.00
Cc1nc(Nc2ncc(C(=O)Nc3c(C)cccc3Cl)s2)cc(N2CCN(CCOC(=O)[C@H](Cc3ccccc3)NC(=O)C[C@@H]3N=C(c4ccc(Cl)cc4)c4c(sc(C)c4C)-n4c(C)nnc43)CC2)n1,pIC50,MDA-MB-231 [1],6.71
Cc1nc(Nc2ncc(C(=O)Nc3c(C)cccc3Cl)s2)cc(N2CCN(CCO)CC2)n1 [DASATINIB ANHYDROUS],Activity,MDA-MB-231 [3],Active
same,inhibition,MDA-MB-231 [4],Active
same,Activity,CWR22R,Active
same,pIC50,MDA-MB-231 [1],6.80
same,Activity,MDA-MB-231 [5],7.75%
same,Activity,MDA-MB-231 [6],15.8%
same,Activity,MDA-MB-231 [7],0.002%
same,Activity,MDA-MB-231 [8],4.45%
same,Activity,MCF7,Active
same,Activity,MDA-MB-231 [9],14.6%
same,Activity,MDA-MB-231 [10],74.5%
same,Activity,MDA-MB-231 [16],Active
same,inhibition in vivo at 30 mg/kg,MDA-MB-231 [17],44.7%
same,Activity,MDA-MB-231 [12],80.9%
same,Activity,A549,Active
same,Activity,MDA-MB-231 [14],Active
same,inhibition,MDA-MB-231 [15],Active
Cc1nc(Nc2ncc(C(=O)Nc3c(C)cccc3Cl)s2)cc(N2CCN(C(=O)CCCCCCCNC(=O)C[C@@H]3N=C(c4ccc(Cl)cc4)c4c(sc(C)c4C)-n4c(C)nnc43)CC2)n1,pIC50,MDA-MB-231 [1],6.12
CC[C@H](C)[C@H](NC(=O)C[C@@H]1N=C(c2ccc(Cl)cc2)c2c(sc(C)c2C)-n2c(C)nnc21)C(=O)OCCN1CCN(c2cc(Nc3ncc(C(=O)Nc4c(C)cccc4Cl)s3)nc(C)n2)CC1,pIC50,MDA-MB-231 [1],6.47
same,pIC50,[2],< 6.00
Cc1nc(Nc2ncc(C(=O)Nc3c(C)cccc3Cl)s2)cc(N2CCN(C(=O)CCCCCNC(=O)C[C@@H]3N=C(c4ccc(Cl)cc4)c4c(sc(C)c4C)-n4c(C)nnc43)CC2)n1,pIC50,MDA-MB-231 [1],6.52
